HELM strings list units from the 5' end as sugar, base in round brackets, then linkage (d deoxyribose, r ribose, m 2'-O-methyl, p phosphodiester). Strings are as the collection lists them; they lack the last nucleoside at the 3' end of the tested compound. [moe] = 2'-O-(2-methoxyethyl) (MOE); [sp] = phosphorothioate linkage; [m5C] = 5-methylcytosine
molecular target: C9ORF72; test: mouse, dose not given; conditions: ASO

Question: For “RNA1{[moe](T)[sp].[moe]([m5C])p.[moe](T)p.[moe](G)p.[moe](T)p.[moe]([m5C])p.[moe](T)p.d(T)[sp].d(T)[sp].d(G)[sp].d(G)[sp].d(A)[sp].d(G)[sp].d([m5C])[sp].d([m5C])[sp].d([m5C])[sp].d(A)[sp].[moe](A)[sp].[moe](A)}$$$$ (last 3' nucleoside missing)”, which 3 h FOB score is on record?
Answer: The 3 h FOB score was 2 score 0-7.

Question: How did the 3 h FOB score turn out when “RNA1{[moe](T)[sp].[moe]([m5C])p.[moe](T)p.[moe](G)p.[moe](T)p.[moe]([m5C])p.d(T)[sp].d(T)[sp].d(T)[sp].d(G)[sp].d(G)[sp].d(A)[sp].d(G)[sp].d([m5C])[sp].d([m5C])[sp].d([m5C])[sp].[moe](A)p.[moe](A)[sp].[moe](A)}$$$$ (last 3' nucleoside missing)” was run?
Answer: The 3 h FOB score was 4.25 score 0-7.

Question: Which 3 h FOB score does the source give for “RNA1{[moe](T)[sp].[moe]([m5C])p.[moe](T)p.[moe](G)p.d(T)[sp].d([m5C])[sp].d(T)[sp].d(T)[sp].d(T)[sp].d(G)[sp].d(G)[sp].d(A)[sp].d(G)[sp].d([m5C])[sp].[moe]([m5C])p.[moe]([m5C])p.[moe](A)p.[moe](A)[sp].[moe](A)}$$$$ (last 3' nucleoside missing)” here?
Answer: The 3 h FOB score was 6.75 score 0-7.

Question: “RNA1{[moe](T)[sp].[moe]([m5C])p.[moe](T)p.d(G)[sp].d(T)[sp].d([m5C])[sp].d(T)[sp].d(T)[sp].d(T)[sp].d(G)[sp].d(G)[sp].d(A)[sp].d(G)[sp].[moe]([m5C])p.[moe]([m5C])p.[moe]([m5C])p.[moe](A)p.[moe](A)[sp].[moe](A)}$$$$ (last 3' nucleoside missing)” was tested. Which 3 h FOB score did it give?
Answer: Its 3 h FOB score is 6.75 score 0-7.

Question: Which 3 h FOB score does the source give for “RNA1{[moe]([m5C])[sp].[moe](A)p.[moe](G)p.[moe](G)[sp].d([m5C])[sp].d(T)[sp].d(G)[sp].d([m5C])[sp].d(G)[sp].d(G)[sp].d(T)[sp].d(T)[sp].[moe](G)p.[moe](T)p.[moe](T)p.[moe](T)[sp].[moe]([m5C])}$$$$ (last 3' nucleoside missing)” here?
Answer: Its 3 h FOB score is 3.5 score 0-7.

Question: How did the 3 h FOB score turn out when “RNA1{[moe]([m5C])[sp].[moe](A)p.[moe](G)p.[moe](G)p.[moe]([m5C])p.[moe](T)[sp].d(G)[sp].d([m5C])[sp].d(G)[sp].d(G)[sp].d(T)[sp].d(T)[sp].d(G)[sp].d(T)[sp].[moe](T)p.[moe](T)[sp].[moe]([m5C])}$$$$ (last 3' nucleoside missing)” was run?
Answer: Its 3 h FOB score is 4.5 score 0-7.

Question: With “RNA1{[moe]([m5C])[sp].[moe](A)p.[moe](G)p.[moe](G)p.[moe]([m5C])p.[moe](T)p.d(G)[sp].d([m5C])[sp].d(G)[sp].d(G)[sp].d(T)[sp].d(T)[sp].d(G)[sp].d(T)[sp].d(T)[sp].[moe](T)p.[moe]([m5C])[sp].[moe]([m5C])}$$$$ (last 3' nucleoside missing)” as the substance, how does the 3 h FOB score read?
Answer: The 3 h FOB score was 6 score 0-7.

Question: “RNA1{[moe]([m5C])[sp].[moe](A)p.[moe](G)p.[moe](G)p.[moe]([m5C])p.[moe](T)p.d(G)[sp].d([m5C])[sp].d(G)[sp].d(G)[sp].d(T)[sp].d(T)[sp].d(G)[sp].d(T)[sp].d(T)[sp].d(T)[sp].[moe]([m5C])p.[moe]([m5C])[sp].[moe]([m5C])}$$$$ (last 3' nucleoside missing)” was tested. Which 3 h FOB score did it give?
Answer: Its 3 h FOB score is 2 score 0-7.

Question: “RNA1{[moe]([m5C])[sp].[moe](A)p.[moe](G)p.[moe](G)p.[moe]([m5C])p.d(T)[sp].d(G)[sp].d([m5C])[sp].d(G)[sp].d(G)[sp].d(T)[sp].d(T)[sp].d(G)[sp].d(T)[sp].[moe](T)p.[moe](T)p.[moe]([m5C])[sp].[moe]([m5C])}$$$$ (last 3' nucleoside missing)” was tested. Which 3 h FOB score did it give?
Answer: Its 3 h FOB score is 5 score 0-7.

Question: How did the 3 h FOB score turn out when “RNA1{[moe]([m5C])[sp].[moe](A)p.[moe](G)p.[moe](G)p.d([m5C])[sp].d(T)[sp].d(G)[sp].d([m5C])[sp].d(G)[sp].d(G)[sp].d(T)[sp].d(T)[sp].d(G)[sp].[moe](T)p.[moe](T)p.[moe](T)p.[moe]([m5C])[sp].[moe]([m5C])}$$$$ (last 3' nucleoside missing)” was run?
Answer: Its 3 h FOB score is 4 score 0-7.

Question: With “RNA1{[moe]([m5C])[sp].[moe](A)p.[moe](G)p.[moe](G)p.d([m5C])[sp].d(T)[sp].d(G)[sp].d([m5C])[sp].d(G)[sp].d(G)[sp].d(T)[sp].d(T)[sp].d(G)[sp].d(T)[sp].[moe](T)p.[moe](T)p.[moe]([m5C])p.[moe]([m5C])[sp].[moe]([m5C])}$$$$ (last 3' nucleoside missing)” as the substance, how does the 3 h FOB score read?
Answer: Its 3 h FOB score is 4.75 score 0-7.

Question: How did the 3 h FOB score turn out when “RNA1{[moe]([m5C])[sp].[moe](G)p.[moe](G)p.[moe]([m5C])[sp].d([m5C])[sp].d([m5C])[sp].d([m5C])[sp].d(T)[sp].d(A)[sp].d(G)[sp].d([m5C])[sp].d(G)[sp].[moe]([m5C])p.[moe](G)p.[moe]([m5C])p.[moe](G)[sp].[moe](A)}$$$$ (last 3' nucleoside missing)” was run?
Answer: The 3 h FOB score was 7 score 0-7.

Question: Which 3 h FOB score does the source give for “RNA1{[moe]([m5C])[sp].[moe](G)p.[moe](G)p.[moe]([m5C])p.[moe]([m5C])p.[moe]([m5C])[sp].d([m5C])[sp].d(T)[sp].d(A)[sp].d(G)[sp].d([m5C])[sp].d(G)[sp].d([m5C])[sp].d(G)[sp].[moe]([m5C])p.[moe](G)[sp].[moe](A)}$$$$ (last 3' nucleoside missing)” here?
Answer: Its 3 h FOB score is 4.5 score 0-7.

Question: With “RNA1{[moe]([m5C])[sp].[moe](G)p.[moe](G)p.[moe]([m5C])p.[moe]([m5C])p.[moe]([m5C])p.d([m5C])[sp].d(T)[sp].d(A)[sp].d(G)[sp].d([m5C])[sp].d(G)[sp].d([m5C])[sp].d(G)[sp].d([m5C])[sp].[moe](G)p.[moe](A)[sp].[moe]([m5C])}$$$$ (last 3' nucleoside missing)” as the substance, how does the 3 h FOB score read?
Answer: Its 3 h FOB score is 3 score 0-7.

Question: With “RNA1{[moe]([m5C])[sp].[moe](G)p.[moe](G)p.[moe]([m5C])p.[moe]([m5C])p.[moe]([m5C])p.d([m5C])[sp].d(T)[sp].d(A)[sp].d(G)[sp].d([m5C])[sp].d(G)[sp].d([m5C])[sp].d(G)[sp].d([m5C])[sp].d(G)[sp].[moe](A)p.[moe]([m5C])[sp].[moe](T)}$$$$ (last 3' nucleoside missing)” as the substance, how does the 3 h FOB score read?
Answer: The 3 h FOB score was 1.25 score 0-7.

Question: Which 3 h FOB score does the source give for “RNA1{[moe]([m5C])[sp].[moe](G)p.[moe](G)p.[moe]([m5C])p.[moe]([m5C])p.d([m5C])[sp].d([m5C])[sp].d(T)[sp].d(A)[sp].d(G)[sp].d([m5C])[sp].d(G)[sp].d([m5C])[sp].d(G)[sp].[moe]([m5C])p.[moe](G)p.[moe](A)[sp].[moe]([m5C])}$$$$ (last 3' nucleoside missing)” here?
Answer: The 3 h FOB score was 4 score 0-7.

Question: With “RNA1{[moe]([m5C])[sp].[moe](G)p.[moe](G)p.[moe]([m5C])p.d([m5C])[sp].d([m5C])[sp].d([m5C])[sp].d(T)[sp].d(A)[sp].d(G)[sp].d([m5C])[sp].d(G)[sp].d([m5C])[sp].[moe](G)p.[moe]([m5C])p.[moe](G)p.[moe](A)[sp].[moe]([m5C])}$$$$ (last 3' nucleoside missing)” as the substance, how does the 3 h FOB score read?
Answer: The 3 h FOB score was 5.25 score 0-7.

Question: With “RNA1{[moe]([m5C])[sp].[moe](G)p.[moe](G)p.[moe]([m5C])p.d([m5C])[sp].d([m5C])[sp].d([m5C])[sp].d(T)[sp].d(A)[sp].d(G)[sp].d([m5C])[sp].d(G)[sp].d([m5C])[sp].d(G)[sp].[moe]([m5C])p.[moe](G)p.[moe](A)p.[moe]([m5C])[sp].[moe](T)}$$$$ (last 3' nucleoside missing)” as the substance, how does the 3 h FOB score read?
Answer: Its 3 h FOB score is 1.75 score 0-7.

Question: “RNA1{[moe]([m5C])[sp].[moe](T)p.[moe](A)p.[moe](G)[sp].d([m5C])[sp].d(G)[sp].d([m5C])[sp].d(G)[sp].d([m5C])[sp].d(G)[sp].d(A)[sp].d([m5C])[sp].[moe](T)p.[moe]([m5C])p.[moe]([m5C])p.[moe](T)[sp].[moe](G)}$$$$ (last 3' nucleoside missing)” was tested. Which 3 h FOB score did it give?
Answer: Its 3 h FOB score is 3.25 score 0-7.

Question: For “RNA1{[moe]([m5C])[sp].[moe](T)p.[moe](G)p.[moe](G)p.[moe](T)p.[moe](T)p.[moe](A)p.d(A)[sp].d(T)[sp].d([m5C])[sp].d(T)[sp].d(T)[sp].d(T)[sp].d(A)[sp].d(T)[sp].d([m5C])[sp].d(A)[sp].[moe](G)[sp].[moe](G)}$$$$ (last 3' nucleoside missing)”, which 3 h FOB score is on record?
Answer: The 3 h FOB score was 2.25 score 0-7.

Question: “RNA1{[moe]([m5C])[sp].[moe](T)p.[moe](G)p.[moe](G)p.[moe](T)p.[moe](T)p.d(A)[sp].d(A)[sp].d(T)[sp].d([m5C])[sp].d(T)[sp].d(T)[sp].d(T)[sp].d(A)[sp].d(T)[sp].d([m5C])[sp].[moe](A)p.[moe](G)[sp].[moe](G)}$$$$ (last 3' nucleoside missing)” was tested. Which 3 h FOB score did it give?
Answer: The 3 h FOB score was 0 score 0-7.

Question: For “RNA1{[moe]([m5C])[sp].[moe](T)p.[moe](G)p.[moe](G)p.d(T)[sp].d(T)[sp].d(A)[sp].d(A)[sp].d(T)[sp].d([m5C])[sp].d(T)[sp].d(T)[sp].d(T)[sp].d(A)[sp].[moe](T)p.[moe]([m5C])p.[moe](A)p.[moe](G)[sp].[moe](G)}$$$$ (last 3' nucleoside missing)”, which 3 h FOB score is on record?
Answer: Its 3 h FOB score is 0 score 0-7.

Question: For “RNA1{[moe]([m5C])[sp].[moe](T)p.[moe](G)p.[moe]([m5C])p.[moe](G)p.[moe](A)p.[moe](T)p.d([m5C])[sp].d([m5C])[sp].d([m5C])[sp].d([m5C])[sp].d(A)[sp].d(T)[sp].d(T)[sp].d([m5C])[sp].d([m5C])[sp].d(A)[sp].[moe](G)[sp].[moe](T)}$$$$ (last 3' nucleoside missing)”, which 3 h FOB score is on record?
Answer: Its 3 h FOB score is 0.25 score 0-7.

Question: How did the 3 h FOB score turn out when “RNA1{[moe]([m5C])[sp].[moe](T)p.[moe](G)p.[moe]([m5C])p.[moe](G)p.[moe](A)p.d(T)[sp].d([m5C])[sp].d([m5C])[sp].d([m5C])[sp].d([m5C])[sp].d(A)[sp].d(T)[sp].d(T)[sp].d([m5C])[sp].d([m5C])[sp].[moe](A)p.[moe](G)[sp].[moe](T)}$$$$ (last 3' nucleoside missing)” was run?
Answer: The 3 h FOB score was 0.25 score 0-7.

Question: With “RNA1{[moe]([m5C])[sp].[moe](T)p.[moe](G)p.[moe]([m5C])p.d(G)[sp].d(A)[sp].d(T)[sp].d([m5C])[sp].d([m5C])[sp].d([m5C])[sp].d([m5C])[sp].d(A)[sp].d(T)[sp].d(T)[sp].[moe]([m5C])p.[moe]([m5C])p.[moe](A)p.[moe](G)[sp].[moe](T)}$$$$ (last 3' nucleoside missing)” as the substance, how does the 3 h FOB score read?
Answer: Its 3 h FOB score is 1.75 score 0-7.

Question: Which 3 h FOB score does the source give for “RNA1{[moe]([m5C])[sp].[moe](T)p.[moe](G)p.d(G)[sp].d(T)[sp].d(T)[sp].d(A)[sp].d(A)[sp].d(T)[sp].d([m5C])[sp].d(T)[sp].d(T)[sp].d(T)[sp].[moe](A)p.[moe](T)p.[moe]([m5C])p.[moe](A)p.[moe](G)[sp].[moe](G)}$$$$ (last 3' nucleoside missing)” here?
Answer: The 3 h FOB score was 0 score 0-7.
